Values of other authors, collected in patent publication US20110042247A1 (priority 2009, published 2011).
Where two headings read alike, the source gives them in different places.

Q: Which results are given for `Nc1ncn([C@H]2C[C@H](O)[C@@H](CO)O2)c(=O)n1` [Decitabine, 4-amino-1-(2-deoxy-β-D-erythro-pentofuranosyl)-1,3,5-triazin-2(1H)-one]?
A: Solubility (dimethylsulphoxide (DMSO)): soluble; Solubility (ethanol and water (50:50)): slightly soluble; Solubility (methanol): slightly soluble; Solubility (methanol/water (50/50)): slightly soluble; Solubility (water): sparingly soluble

Q: Which results are given for `Nc1ncn([C@@H]2O[C@H](CO)[C@@H](O)[C@H]2O)c(=O)n1` [Azacitidine, 4-amino-1-β-D-ribofuranosyl-1,3,5-triazin-2(1H)-one]?
A: Solubility (5% Tween 80 in water): sparingly soluble; Solubility (5% dextrose in water): sparingly soluble; Solubility (N-methylpyrrolidone): sparingly soluble; Solubility (acetone): insoluble; Solubility (dimethylsulphoxide (DMSO)): soluble; Solubility (ethanol): insoluble; Solubility (ethanol and water (50:50)): slightly soluble; Solubility (methyl ethyl ketone): insoluble; Solubility (normal saline): sparingly soluble; Solubility (polyethylene glycol): slightly soluble; Solubility (propylene glycol): slightly soluble; Solubility (water): sparingly soluble; Solubility (water saturated octanol): sparingly soluble
